Test results as given in US10947213B1 (Merck Patent GmbH, priority 2015, dated 2021).
Where a name gives a salt, the structure may show the parent alone.

Biological target: T1, TLR7/NFKb HEK cells (Homo sapiens, UniProt Q9NYK1)
T1 construct: expressed in transfected cells; host or cells: HEK cells (TLR7/NFKb reporter line)
T1 sequence (Q9NYK1 27-1049): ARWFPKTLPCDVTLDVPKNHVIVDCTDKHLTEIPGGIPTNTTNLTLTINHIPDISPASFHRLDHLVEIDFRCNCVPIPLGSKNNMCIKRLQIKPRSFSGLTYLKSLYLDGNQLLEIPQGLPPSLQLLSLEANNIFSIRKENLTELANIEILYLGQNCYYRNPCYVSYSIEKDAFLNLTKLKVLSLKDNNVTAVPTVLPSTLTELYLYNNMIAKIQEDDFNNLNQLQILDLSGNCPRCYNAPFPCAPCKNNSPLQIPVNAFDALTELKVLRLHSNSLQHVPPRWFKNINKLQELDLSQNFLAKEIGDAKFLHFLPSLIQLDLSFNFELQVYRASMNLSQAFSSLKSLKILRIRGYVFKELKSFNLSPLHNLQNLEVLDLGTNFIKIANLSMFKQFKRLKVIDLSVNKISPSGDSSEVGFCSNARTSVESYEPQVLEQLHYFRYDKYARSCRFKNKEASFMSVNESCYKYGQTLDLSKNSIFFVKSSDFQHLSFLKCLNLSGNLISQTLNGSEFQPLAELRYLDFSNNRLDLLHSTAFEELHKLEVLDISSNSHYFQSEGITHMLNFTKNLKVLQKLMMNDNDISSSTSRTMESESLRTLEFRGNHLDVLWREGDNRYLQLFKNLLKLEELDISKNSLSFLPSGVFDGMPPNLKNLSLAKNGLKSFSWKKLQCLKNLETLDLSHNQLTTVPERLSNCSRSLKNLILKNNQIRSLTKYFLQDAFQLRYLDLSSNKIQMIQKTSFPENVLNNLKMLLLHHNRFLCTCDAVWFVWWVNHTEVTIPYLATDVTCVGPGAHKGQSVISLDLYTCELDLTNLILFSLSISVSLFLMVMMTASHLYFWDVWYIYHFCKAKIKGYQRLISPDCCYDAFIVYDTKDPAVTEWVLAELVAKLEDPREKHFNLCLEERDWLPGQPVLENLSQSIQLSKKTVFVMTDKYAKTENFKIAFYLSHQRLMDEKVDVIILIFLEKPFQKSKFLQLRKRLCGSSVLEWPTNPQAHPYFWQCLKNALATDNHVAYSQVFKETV
Test: HEK Cell Assay (TLR7/NFKb reporter, Steady-Glo luciferase readout)
Assay type: cell-based
Details: 30 min compound preincubation, then R*48 agonist for 5 hours, read-out: Potency
Method: Example 142: HEK Cell Assay
Into 384 CulturePlates (Corning 3707) was placed 5000 c/w of TLR7/NFKb HEK cells in 30 uL DMEM without Phenil red (gibco #31053) and 10% i.a. FCS and 2 mM L-ZGLutamin. The cells were incubated for 24 h at 37° C., 10% carbon dioxide and 90% relative humidity. 3 uL of controls, standards, and compounds were dispensed into wells, incubated for 30 min then 3 uL of R*48 agonist in 20 mM Hepes was added. After incubation for 5 hours, they were allowed to stand at room temperature for 15 min. To this was added 10 uL of Steady-Glo substrate reagent and shake assay plate for 5 min at 1500 rpm. The assay plate was allowed to sit for 30 min at room temperature and then the plate was read on EnVision.

`N#Cc1ccc(N2CC(NC(=O)C(N)C3CC3)CC(C(F)(F)F)C2)c2cccnc12` (mixture of isomers) [Compound 486, rac-(R)-2-Amino-N-[(3R,5S)-1-(8-cyano-quinolin-5-yl)-5-trifluoromethyl-piperidin-3-yl]-2-cyclopropyl-acetamide] and `CN1CC(CC(=O)NC2CC(C(F)(F)F)CN(c3ccc(C#N)c4ncccc34)C2)C1` (racemic) [Compound 490, cis-N-[(1-(8-Cyano-quinolin-5-yl)-5-trifluoromethyl-piperidin-3-yl]-2-(1-methyl-azetidin-3-yl)-acetamide] cannot be ordered by IC50: < 1000 nM for the first, < 1000 nM for the second.

Compared with `N[C@@H]1C[C@H](C(F)(F)F)CN(c2ccnc3nccnc23)C1` (racemic) [Compound 84], `FC(F)(F)CCN[C@H]1C[C@@H](C(F)(F)F)CN(c2ccnc3nccnc23)C1` (relative stereo) [Compound 96, cis-1-[pyrido[2,3-b]pyrazin-8-yl]-5-(trifluoromethyl)-N-(3,3,3-trifluoropropyl)piperidin-3-amine hydrochloride] is higher in IC50: 1000 to 10000 nM for the first, > 10000 nM for the second.

Compared with `CN1CCN(CC(=O)N[C@H]2C[C@@H](C3CC3)CN(c3ccc(C(F)(F)F)c4ncccc34)C2)CC1` (racemic) [Compound 338, cis-N-[5-cyclopropyl-1-[8-(trifluoromethyl)quinolin-5-yl]piperidin-3-yl]-2-(4-methylpiperazin-1-yl)acetamide], `O=C(CN1CCOCC1)N[C@H]1C[C@@H](C2CC2)CN(c2ccc(F)c3ncccc23)C1` (racemic) [Compound 367, cis-N-[5-cyclopropyl-1-(8-fluoroquinolin-5-yl)piperidin-3-yl]-2-(morpholin-4-yl)acetamide] is higher in IC50: < 1000 nM for the first, > 10000 nM for the second. The first is the more potent here.

First: CN(C(=O)CN1CCOCC1)[C@H]1C[C@@H](C2CC2)CN(c2ccc(F)c3ncccc23)C1 (racemic) [Compound 368, cis-N-[5-cyclopropyl-1-(8-fluoroquinolin-5-yl)piperidin-3-yl]-N-methyl-2-(morpholin-4-yl)acetamide]
Second: N#Cc1ccc(N2C[C@@H](NC(=O)CN3CCOCC3)C[C@@H](C(F)(F)F)C2)c2cccnc12 (racemic) [Compound 424, cis-N-[1-(8-Cyano-quinolin-5-yl)-5-trifluoromethyl-piperidin-3-yl]-2-morpholin-4-yl-acetamide]
The IC50 of the first is higher: > 10000 nM for the first, 1000 to 10000 nM for the second.

First: CN(C)CC(=O)N[C@H]1C[C@@H](C(F)(F)F)CN(c2ccc(C#N)c3ncccc23)C1 (racemic) [Compound 426, cis-N-[1-(8-Cyano-quinolin-5-yl)-5-trifluoromethyl-piperidin-3-yl]-2-dimethylamino-acetamide]
Second: CC(C)(O)CC(=O)N[C@@H]1C[C@H](C(F)(F)F)CN(c2ccc(C#N)c3ncccc23)C1 (racemic) [Compound 481]
The IC50 of the first is lower: < 1000 nM for the first, 1000 to 10000 nM for the second. The first is the more potent here.

`C[C@@H]1C[C@H](O)CN(c2ccc(C(F)(F)F)c3ncccc23)C1` (racemic) [Compound 461, cis-5-Methyl-1-(8-trifluoromethyl-quinolin-5-yl)-piperidin-3-ol] and `N#Cc1ccc(N2C[C@@H](N)C[C@@H](C(F)(F)F)C2)c2cccnc12` (relative stereo) [Compound 71, cis-5-(3-Amino-5-trifluoromethyl-piperidin-1-yl)-quinoline-8-carbonitrile] cannot be ordered by IC50: < 1000 nM for the first, < 1000 nM for the second.

`N#Cc1ccc(N2C[C@@H](NC(=O)CC3(N)CCCCC3)C[C@@H](C(F)(F)F)C2)c2cccnc12` (racemic) [Compound 479, hydrochloride] and `N#Cc1ccc(N2CC(NC(=O)CC3(O)CCCCC3)CC(C(F)(F)F)C2)c2cccnc12` (racemic) [Compound 491] cannot be ordered by IC50: < 1000 nM for the first, < 1000 nM for the second.

First: N#Cc1ccc(N2C[C@@H](NC(=O)CCC(=O)N3CCC3)C[C@@H](C(F)(F)F)C2)c2cccnc12 (racemic) [Compound 482]
Second: CN1CCN(C(=O)CCC(=O)N[C@H]2C[C@@H](C(F)(F)F)CN(c3ccc(C#N)c4ncccc34)C2)CC1 (racemic) [Compound 496, cis-N—[-1-(8-Cyano-quinolin-5-yl)-5-trifluoromethyl-piperidin-3-yl]-4-(4-methyl-piperazin-1-yl)-4-oxo-butyramide]
The IC50 of the first is higher: 1000 to 10000 nM for the first, < 1000 nM for the second.

First: CNC(=O)CCC(=O)NC1CC(C(F)(F)F)CN(c2ccc(C#N)c3ncccc23)C1 (racemic) [Compound 492, cis-(N-1-(8-Cyano-quinolin-5-yl)-5-trifluoromethyl-piperidin-3-yl]-N′-methyl-succinamide)]
Second: N#Cc1ccc(N2CC(NC(=O)CC3(N)CCOCC3)CC(C(F)(F)F)C2)c2cccnc12 (racemic) [Compound 493, 2-(4-Amino-tetrahydro-pyran-4-yl)-N-[1-(8-cyano-quinolin-5-yl)-5-trifluoromethyl-piperidin-3-yl]-acetamide hydrochloride]
The IC50 of the first is higher: 1000 to 10000 nM for the first, < 1000 nM for the second.

Compared with `CN1CCC(CC(=O)NC2CN(c3ccc(C#N)c4nccnc34)CC(F)(F)C2)CC1` (racemic) [Compound 504, N-[1-(8-Cyano-quinoxalin-5-yl)-5,5-difluoro-piperidin-3-yl]-2-(1-methyl-piperidin-4-yl)-acetamide], `CN(C)CC(=O)N[C@H]1C[C@@H](C2CC2)CN(c2ccc(C#N)c3nccnc23)C1` (relative stereo) [Compound 179, cis-N-[1-(8-cyanoquinoxalin-5-yl)-5-cyclopropylpiperidin-3-yl]-2-(dimethylamino)acetamide] is higher in IC50: < 1000 nM for the first, 1000 to 10000 nM for the second.

First: CC(C)(C)CC(=O)N[C@H]1C[C@@H](C(F)(F)F)CN(c2ccc(C#N)c3nccnc23)C1 (relative stereo) [Compound 85, cis-N-[1-(8-cyanoquinoxalin-5-yl)-5-(trifluoromethyl)piperidin-3-yl]-3,3-dimethylbutanamide]
Second: N#Cc1ccc(N2C[C@@H](NC(=O)CO)C[C@@H](C(F)(F)F)C2)c2nccnc12 (relative stereo) [Compound 223, cis-N-[1-(8-cyanoquinoxalin-5-yl)-5-(trifluoromethyl)piperidin-3-yl]-2-hydroxyacetamide]
The IC50 of the first is lower: < 1000 nM for the first, 1000 to 10000 nM for the second. The first is the more potent here.

Going from `CC(C)(C)CC(=O)N[C@H]1C[C@@H](C(F)(F)F)CN(c2ccnc3nccnc23)C1` (relative stereo) [Compound 86, cis-3,3-dimethyl-N-[1-[pyrido[2,3-b]pyrazin-8-yl]-5-(trifluoromethyl)piperidin-3-yl]butanamide] to `CN(C)CC(=O)N[C@H]1C[C@@H](C(F)(F)F)CN(c2ccc(C#N)c3nccnc23)C1` (relative stereo) [Compound 222, cis-N-[1-(8-cyanoquinoxalin-5-yl)-5-(trifluoromethyl)piperidin-3-yl]-2-(dimethylamino)acetamide], the IC50 falls from > 10000 nM to < 1000 nM. The second is the more potent here.

`N#Cc1ccc(N2C[C@H](NCCC(F)(F)F)C[C@H](C(F)(F)F)C2)c2nccnc12` (relative stereo) [Compound 95, cis-8-[3-(trifluoromethyl)-5-[(3,3,3-trifluoropropyl)amino]piperidin-1-yl]quinoxaline-5-carbonitrile] and `COCCN[C@H]1C[C@@H](C(F)(F)F)CN(c2ccc(C#N)c3nccnc23)C1` (relative stereo) [Compound 221, cis-8-[3-[(2-methoxyethyl)amino]-5-(trifluoromethyl)piperidin-1-yl]quinoxaline-5-carbonitrile] fall in the same range of IC50: 1000 to 10000 nM for the first, 1000 to 10000 nM for the second.

`CC(C)(C)CC(=O)N[C@H]1C[C@@H](C2CC2)CN(c2ccc(C#N)c3nccnc23)C1` (relative stereo) [Compound 175, cis-N-[1-(8-cyanoquinoxalin-5-yl)-5-cyclopropylpiperidin-3-yl]-3,3-dimethylbutanamide] and `COCCN[C@@H]1C[C@H](C2CC2)CN(c2ccc(C#N)c3nccnc23)C1` (relative stereo) [Compound 176, cis-8-[3-cyclopropyl-5-[(2-methoxyethyl)amino]piperidin-1-yl]quinoxaline-5-carbonitrile] fall in the same range of IC50: 1000 to 10000 nM for the first, 1000 to 10000 nM for the second.

`N#Cc1ccc(N2C[C@@H](NC(=O)CN3CCOCC3)C[C@@H](C(F)(F)F)C2)c2nccnc12` (relative stereo) [Compound 228, cis-N-[1-(8-cyanoquinoxalin-5-yl)-5-(trifluoromethyl)piperidin-3-yl]-2-(morpholin-4-yl)acetamide] gave an IC50 of 1000 to 10000 nM.
